Assay results reported in US20260285857A1, “BICYCLIC AND HETEROCYCLIC AMIDE COMPOUNDS” (priority 2024, published 2026).
Read-outs that look alike come from different tables or passages of the source.

System: immunoglobulin light chain protein WIL-FL T46L
Assay: Differential scanning fluorimetry (thermal shift) assay
Assay type: binding
[1] = Table B, temperature shift [Tm]compound-[Tm]vehicle, recombinant WIL-FL T46L
[2] = Table A, temperature shift [Tm]compound-[Tm]vehicle, recombinant WIL-FL T46L

Compound	DSF [1]	DSF [2]	also measured
Cc1cc(N2CC[C@](C)(c3ccccc3)C2)cn2nc(C(=O)NC3CC4CCC3N4c3cccc(C(=O)O)n3)nc12 (stereo partly drawn) [Compound 668]	***** (>2.5° C.=*****)		
Cc1cc(N2CC[C@](C)(c3ccccc3)C2)cn2nc(C34CC(C(=O)O)(CO3)C4c3nc(N)n[nH]3)nc12 (stereo partly drawn) [Compound 545, 5-(3-amino-1H-1,2,4-triazol-5-yl)-1-[8-methyl-6-[(3R)-3-methyl-3-phenyl-pyrrolidin-1-yl]-[1,2,4]triazolo[1,5-a]pyridin-2-yl]-2-oxabicyclo[2.1.1]hexane-4-carboxylic acid]	***** (>2.5° C.=*****)		
COC1(CNC(=O)c2nc3c(C)cc(N4CC[C@](C)(c5ccccc5)C4)cn3n2)CN(c2cccc(C(=O)O)n2)C1 [Compound 612]	***** (>2.5° C.=*****)		
Cc1cc(N2CC[C@](C)(c3ccccc3)C2)cn2nc(C34CC(CO3)C4c3nc(NC(=O)C4CC(C)(C(=O)O)C4)n[nH]3)nc12 (stereo partly drawn) [Compound 555]	***** (>2.5° C.=*****)		
Cc1cc(N2CC[C@](C)(c3ccccc3)C2)cn2nc([C@]34C[C@H](CO3)[C@@H]4N3CC4(CC4)NC3=O)nc12 [Compound 523]	***** (>2.5° C.=*****)		
Cc1cc(N2CC[C@](C)(c3ccccc3)C2)cn2nc(C(=O)NC3COCC3(C)C(=O)O)nc12 (stereo partly drawn) [Compound 180]		***** (>2.5° C.=*****)	
Cc1cc(N2CC[C@](C)(c3ccccc3)C2)cn2nc(C34CC(CO3)C4CN3CC4C(C3)C4C(=O)O)nc12 (stereo partly drawn) [Compound 506, 3-((1-(8-methyl-6-((R)-3-methyl-3-phenylpyrrolidin-1-yl)-[1,2,4]triazolo[1,5-a]pyridin-2-yl)-2-oxabicyclo[2.1.1]hexan-5-yl)methyl)-3-azabicyclo[3.1.0]hexane-6-carboxylic acid]	***** (>2.5° C.=*****)		
Cc1cc(N2CC[C@](C)(c3ccccc3)C2)cn2nc(C34CC(NC(=O)Nc5cccc(C(=O)O)n5)(CO3)C4)nc12 [Compound 454]	***** (>2.5° C.=*****)		
Cc1cc(N2CC[C@](C)(c3ccccc3)C2)cn2nc(C(=O)N3CC[C@@]4(CCN(C(=O)C56CCC(C(=O)O)(C5)C6)C4)C3)nc12 [Compound 713]	***** (>2.5° C.=*****)		
C[C@]1(c2ccccc2)CCN(c2cc(CO)c3nc(C(=O)N4CCC5(C4)CN(c4cccc(C(=O)O)n4)C5)nn3c2)C1 [Compound 618]	***** (>2.5° C.=*****)		
Cc1cc(N2CC[C@](C)(c3ccccc3)C2)cn2nc(C34CC(CO3)C4c3noc(=O)[nH]3)nc12 (stereo partly drawn) [Compound 13, 3-[1-[8-methyl-6-[(3R)-3-methyl-3-phenyl-pyrrolidin-1-yl]-[1,2,4]triazolo[1,5-a]pyridin-2-yl]-2-oxabicyclo[2.1.1]hexan-5-yl]-4H-1,2,4-oxadiazol-5-one]		***** (>2.5° C.=*****)	
Cc1cc(N2CC[C@](C)(c3ccccc3)C2)cn2nc(C34CC(Cn5nncc5C)(CO3)C4)nc12 [Compound 451]	***** (>2.5° C.=*****)		
Cc1cc(N2CC[C@](C)(c3ccccc3)C2)cn2nc(C(=O)NC3CC4(CCN(C(=O)CC(C)(O)C(=O)O)C4)C3)nc12 (stereo partly drawn) [Compound 673, 2-hydroxy-2-methyl-4-(2-(8-methyl-6-((R)-3-methyl-3-phenylpyrrolidin-1-yl)-[1,2,4]triazolo[1,5-a]pyridine-2-carboxamido)-6-azaspiro[3.4]octan-6-yl)-4-oxobutanoic acid]	***** (>2.5° C.=*****)		
Cc1cc(N2CC[C@](C)(c3ccccc3)C2)cn2nc(C(=O)NC3CC4(C3)CN(c3ccnc(O)c3)C4)nc12 [Compound 223]		***** (>2.5° C.=*****)	
Cc1cc(N2CC[C@](C)(c3ccccc3)C2)cn2nc(C(=O)NC3CC4CCC(C3)N4)nc12 (stereo partly drawn) [Compound 199]		***** (>2.5° C.=*****)	
Cc1cc(N2CC[C@](C)(c3ccccc3)C2)cn2nc(C(=O)N[C@H](CO)C(C)C)nc12 [Compound 206]		***** (>2.5° C.=*****)	
Cc1cc(N2CC[C@](C)(c3ccccc3)C2)cn2nc(C34CC(CO)(CO3)C4c3nnn(C)n3)nc12 (stereo partly drawn) [Compound 570, (5-(2-methyl-2 h-tetrazol-5-yl)-1-(8-methyl-6-((r)-3-methyl-3-phenylpyrrolidin-1-yl)-[1,2,4]triazolo[1,5-a]pyridin-2-yl)-2-oxabicyclo[2.1.1]hexan-4-yl)methanol]	***** (>2.5° C.=*****)		
Cc1cc(N2CC3(CC(NC(=O)c4nc5c(C)cc(N6CC[C@](C)(c7ccccc7)C6)cn5n4)C3)C2)cc(C(=O)O)n1 [Compound 272]		***** (>2.5° C.=*****)	
Cc1cc(N2CC[C@](C)(c3ccccc3)C2)cn2nc(C(=O)N3CCC4NC(=O)CC43)nc12 (stereo partly drawn) [Compound 135]		***** (>2.5° C.=*****)	
Cc1cc(N2CC[C@](C)(c3ccccc3)C2)cn2nc(C34CC(CO3)C4N3CC4(CCN(c5cccc(C(=O)O)n5)C4)NC3=O)nc12 (stereo partly drawn) [Compound 531, 6-[3-[1-[8-methyl-6-[(3R)-3-methyl-3-phenyl-pyrrolidin-1-yl]-[1,2,4]triazolo[1,5-a]pyridin-2-yl]-2-oxabicyclo[2.1.1]hexan-5-yl]-2-oxo-1,3,7-triazaspiro[4.4]nonan-7-yl]pyridine-2-carboxylic acid]	***** (>2.5° C.=*****)		
Cc1cc(N2CC[C@](C)(c3ccccc3)C2)cn2nc(C(=O)NC3CNC(C(F)(F)F)C3)nc12 (stereo partly drawn) [Compound 203]		***** (>2.5° C.=*****)	

Compound	DSF [1]	DSF [2]	also measured
Cc1cc(N2CC[C@](C)(c3ccccc3)C2)cn2nc(C(=O)N3CCC4(CCN(c5nc(C(=O)O)ccc5C#N)C4)C3)nc12 (stereo partly drawn) [Compound 724]	***** (>2.5° C.=*****)		
Cc1cc(N2CCC(C)(c3ccccn3)C2)cn2nc(C(=O)NC3CCN(c4cccc(C(=O)O)n4)CC3)nc12 (stereo not drawn) [Compound 34, 6-[4-[[8-methyl-6-[3-methyl-3-(2-pyridyl)pyrrolidin-1-yl]-[1,2,4]triazolo[1,5-a]pyridine-2-carbonyl]amino]-1-piperidyl]pyridine-2-carboxylic acid]		**** (>1.5-2.5° C.=****)	
Cc1cc(N2CC[C@](C)(c3ccccc3)C2)cn2nc(C34CC(CO3)C4NC(=O)C3(C)CN(c4cccc(C(=O)O)n4)C3)nc12 (stereo partly drawn) [Compound 533, 6-(3-methyl-3-((1-(8-methyl-6-((R)-3-methyl-3-phenylpyrrolidin-1-yl)-[1,2,4]triazolo[1,5-a]pyridin-2-yl)-2-oxabicyclo[2.1.1]hexan-5-yl)carbamoyl)azetidin-1-yl)picolinic acid]	***** (>2.5° C.=*****)		
Cc1cc(N2CC[C@](C)(c3ccccc3)C2)cn2nc(C34CC(CO)(CO3)C4N3CC4(CC4)NC3=O)nc12 (stereo partly drawn) [Compound 576, 6-(4-(hydroxymethyl)-1-(8-methyl-6-((R)-3-methyl-3-phenylpyrrolidin-1-yl)-[1,2,4]triazolo[1,5-a]pyridin-2-yl)-2-oxabicyclo[2.1.1]hexan-5-yl)-4,6-diazaspiro[2.4]heptan-5-one]			DSF: ***** (key: 0-0.5° C.=*; >0.5-1 °C =**; >1-1.5° C.=***; >1.5-2.5° C.=****; >2.5° C.=*****)
Cc1cc(N2CC[C@](C)(c3ccccc3)C2)cn2nc(C(=O)N3CC4(C(=O)O)CC3C4)nc12 [Compound 439]		***** (>2.5° C.=*****)	
Cc1cc(N2CC[C@](C)(c3ccccc3)C2)cn2nc(C(=O)N3CCCC(C)(C(=O)O)C3)nc12 (stereo partly drawn) [Compound 178]		***** (>2.5° C.=*****)	
Cc1cc(N2CC[C@](C)(c3ccccc3)C2)cn2nc(C(=O)NC3CCN(c4cccc(S(C)(=N)=O)n4)CC3)nc12 (stereo partly drawn) [Compound 608, 8-methyl-6-[(3R)-3-methyl-3-phenyl-pyrrolidin-1-yl]-N-[1-[6-(methylsulfonimidoyl)-2-pyridyl]-4-piperidyl]-[1,2,4]triazolo[1,5-a]pyridine-2-carboxamide]	***** (>2.5° C.=*****)		
Cc1cc(N2CC[C@](C)(c3ccccc3)C2)cn2nc(C(=O)N3CCC4(C3)CN(c3cccc(C(=O)O)n3)CCO4)nc12 (stereo partly drawn) [Compound 222]		***** (>2.5° C.=*****)	
Cc1cc(N2CC[C@](C)(c3ccccc3)C2)cn2nc(C(=O)N[C@@H](C)CO)nc12 [Compound 139]		***** (>2.5° C.=*****)	
COCC(C)(O)CNC(=O)c1nc2c(C)cc(N3CC[C@](C)(c4ccccc4)C3)cn2n1 (stereo partly drawn) [Compound 138]		***** (>2.5° C.=*****)	
Cc1cc(N2CC[C@](C)(c3ccccc3)C2)cn2nc(C34CC(N)(CO3)C4c3nc(C)n(C)n3)nc12 (stereo partly drawn) [Compound 539]	***** (>2.5° C.=*****)		
Cc1cc(N2CC[C@](C)(c3ccccc3)C2)cn2nc(C(=O)N3CC[C@@]4(CCN(C(=O)C5CC56CC(C(=O)O)C6)C4)C3)nc12 (stereo partly drawn) [Compound 734]	***** (>2.5° C.=*****)		
Cc1cc(N2CC[C@](C)(c3ccccc3)C2)cn2nc(C(=O)N[C@H]3C[C@](C)(O)C3)nc12 [Compound 167]		***** (>2.5° C.=*****)	
Cc1cc(N2CC[C@](C)(c3ccccc3)C2)cn2nc(C(=O)NC34CC3CN(c3cccc(C(=O)O)n3)C4)nc12 (stereo partly drawn) [Compound 232]		***** (>2.5° C.=*****)	
Cc1cc(N2CCC(C)(c3cncc(F)c3)C2)cn2nc(C(=O)N3CC[C@@]4(CCN(c5cccc(C(=O)O)n5)C4)C3)nc12 (stereo partly drawn) [Compound 424]		**** (>1.5-2.5° C.=****)	
Cc1cc(N2CC[C@](C)(c3ccccc3)C2)cn2nc(C34CC(CO3)C4c3nc(NS(=O)(=O)[C@H]4CC[C@@H](C(=O)O)CC4)n[nH]3)nc12 (stereo partly drawn) [Compound 561]	***** (>2.5° C.=*****)		
Cc1cc(N2CC[C@](C)(c3ccccc3)C2)cn2nc(C(=O)NC34CCC(C(=O)O)(C3)C4)nc12 [Compound 207]		***** (>2.5° C.=*****)	
Cc1cc(N2CC[C@](C)(c3ccccc3)C2)cn2nc(C(=O)NC3CCN(c4ccc(C(=O)O)nc4)C3)nc12 (stereo partly drawn) [Compound 271]		***** (>2.5° C.=*****)	
Cc1cc(N2CC[C@](C)(c3ccccc3)C2)cn2nc(C(=O)N3CC4C(C3)C4Nc3cccc(C(=O)O)n3)nc12 (stereo partly drawn) [Compound 622]	***** (>2.5° C.=*****)		
Cc1n[nH]c([C@@H]2[C@@H]3CO[C@@]2(c2nc4c(C)cc(N5CC[C@](C)(c6ccccc6)C5)cn4n2)C3)n1 [Compound 492, 8-methyl-6-[(3R)-3-methyl-3-phenyl-pyrrolidin-1-yl]-2-[(1S,4R,5S)-5-(3-methyl-1H-1,2,4-triazol-5-yl)-2-oxabicyclo[2.1.1]hexan-1-yl]-[1,2,4]triazolo[1,5-a]pyridine]	***** (>2.5° C.=*****)		
Cc1cc(N2CC[C@](C)(c3ccccc3)C2)cn2nc(C(=O)NCC34COC(C3)C4)nc12 [Compound 122]		***** (>2.5° C.=*****)	
